Data reported in doi:10.1101/2025.10.16.682360v1, “Live-Cell Chemoproteomic Profiling Identifies the Uncharacterised Protein YbaA as a Direct Target of Ciprofloxacin in Escherichia coli” (biorxiv, 2025).

Tests used:
YjdN = target: T1, YjdN (Escherichia coli, UniProt P16681); experiment: surface plasmon resonance; assay type: binding
T1 construct: C-terminal His10 tag; purified by IMAC and size exclusion chromatography
T1 sequence (P16681 1-147): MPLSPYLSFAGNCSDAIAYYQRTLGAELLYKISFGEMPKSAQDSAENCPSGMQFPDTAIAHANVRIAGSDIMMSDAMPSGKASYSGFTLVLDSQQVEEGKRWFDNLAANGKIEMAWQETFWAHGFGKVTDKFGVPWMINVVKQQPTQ
Excerpt: surface plasmon resonance on YjdN | Direct binding of CFX to YjdN or YbaA was further assessed by surface plasmon resonance

YbaA = target: T2, YbaA (Escherichia coli, UniProt P0AAQ6); experiment: surface plasmon resonance; assay type: binding
T2 construct: C-terminal His10 tag; purified by IMAC and size exclusion chromatography; printed peptide IVECWASDVPDGKVTDFR
T2 sequence (P0AAQ6 1-117): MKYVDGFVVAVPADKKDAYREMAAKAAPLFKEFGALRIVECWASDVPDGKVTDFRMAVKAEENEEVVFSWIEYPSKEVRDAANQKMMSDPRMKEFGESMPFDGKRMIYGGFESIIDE
Excerpt: surface plasmon resonance on YbaA | Direct binding of CFX to YjdN or YbaA was further assessed by surface plasmon resonance

With O=C(O)c1cn(C2CC2)c2cc(N3CCNCC3)c(F)cc2c1=O [compound 1, Ciprofloxacin] the Kd (YjdN) was 1400 ± 620 nM and the Kd (YbaA) was 1000 ± 340 nM.
